# Experimental data as given in ChEMBL document CHEMBL5335841, “In vitro biological evaluation and in silico studies of linear diarylheptanoids from Curcuma aromatica Salisb. as urease inhibitors” (RSC Med Chem, 2024).
# Legend:
# [1] = Inhibition of urease (unknown origin) using urea as substrate preincubated for 30 mins followed by substrate addition and measured after 20 mins by red phenol reagent based assay
# [2] = Inhibition of urease (unknown origin) at 250 uM using urea as substrate preincubated for 30 mins followed by substrate addition and measured after 20 mins by red phenol reagent based assay relative to control; conditions: time 50.0 min
SMILES,IC50 [1] [µM],inhibition [2] [%]
COc1cc(CC[C@H](C[C@H](CCc2ccc(O)cc2)OC(C)=O)OC(C)=O)cc(OC)c1O (relative stereo),> 250,3.3
Oc1ccc(CC[C@H](O)C[C@H](O)CCc2ccc(O)c(O)c2)cc1 (relative stereo),9.6,
COc1cc(CC[C@@H](O)C[C@@H](O)CCc2ccc(O)cc2)cc(OC)c1O (relative stereo),228,
CC(=O)O[C@H](CCc1ccc(O)c(O)c1)C[C@H](CCc1ccc(O)cc1)OC(C)=O (relative stereo),129,
COc1cc(CC[C@@H](O)C[C@H](O)CCc2cc(OC)c(O)c(OC)c2)ccc1O (relative stereo),> 250,14.3
COc1cc(CC[C@H](O)C[C@H](O)CCc2cc(OC)c(O)c(OC)c2)ccc1O (relative stereo),> 250,27.3
COc1cc(CC[C@@H](O)C[C@H](O)CCc2ccc(O)c(O)c2)ccc1O (relative stereo),21.8,
NC(=O)NO [HYDROXYUREA],77.5,
COc1cc(CC[C@@H](O)C[C@@H](O)CCc2ccc(O)cc2)ccc1O (relative stereo),153,
COc1cc(CC[C@H](C[C@H](CCc2ccc(O)cc2)OC(C)=O)OC(C)=O)ccc1O (relative stereo),223,
